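How tested: cells in 96-well plates exposed to compound for 48 hours at five concentrations. GI50 = concentration required for 50% inhibition of growth.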 Activity calls are given as the source filed them. Rule as the data show it: active = GI50 up to about 1.1 µM and inactive = higher.
Tests used:
Assay in all cases: DTP human tumour cell line panel, 48 h
[1] = test system: SF-295
[2] = test system: A549
[3] = test system: NCI-H460
[4] = test system: A498
[5] = test system: HL-60
[6] = test system: Malme-3M
[7] = test system: LOX IMVI
[8] = test system: HT-29
[9] = test system: OVCAR-4
[10] = test system: NCI-H226
[11] = test system: ACHN
[12] = test system: PC-3
[13] = test system: 786-0
[14] = test system: MOLT-4
[15] = test system: UACC-62
[16] = test system: CCRF-CEM
[17] = test system: KM12
[18] = test system: SK-MEL-2
[19] = test system: DU-145
[20] = test system: HCT-116

Measured: GI50

O=C(O)CC1OCC=C2CN3CCC45C6=CC(=O)C(O)=C([N+](=O)[O-])C6=NC4C1C2CC35 (stereo not given)
inactive: [1] > 100 µM | [2] > 100 µM | [3] > 100 µM | [4] > 100 µM | [5] 52 µM | [6] > 100 µM | [7] 40.8 µM | [8] > 100 µM | [9] > 100 µM | [10] > 100 µM | [11] > 100 µM | [12] > 100 µM | [13] > 100 µM | [14] 89.5 µM | [15] 34.4 µM | [16] 18.1 µM | [17] > 100 µM | [18] > 100 µM | [19] > 100 µM | [20] > 100 µM

CC(=O)OC1(C)N=NC2(CCCCC2)O1 (stereo not given)
inactive: [1] > 100 µM | [2] > 100 µM | [3] > 100 µM | [4] > 100 µM | [5] 18.9 µM | [6] > 100 µM | [7] > 100 µM | [8] > 100 µM | [9] > 100 µM | [10] > 100 µM | [11] > 100 µM | [12] > 100 µM | [13] > 100 µM | [14] > 100 µM | [15] > 100 µM | [16] > 100 µM | [17] > 100 µM | [18] > 100 µM | [19] > 100 µM | [20] > 100 µM

O=[N+]([O-])c1ccc2nc3ccc([N+](=O)[O-])cn3c2c1
inactive: [1] > 100 µM | [2] 39.1 µM | [3] 43.3 µM | [4] 20.7 µM | [5] > 100 µM | [6] 92.5 µM | [7] 85.1 µM | [8] 83 µM | [9] 29.1 µM | [10] > 100 µM | [11] > 100 µM | [12] > 100 µM | [13] 34.4 µM | [14] > 100 µM | [15] 86.3 µM | [16] > 100 µM | [17] > 100 µM | [18] > 100 µM | [19] 39.2 µM | [20] 33.4 µM

Source: ChEMBL document CHEMBL1201862, “PubChem BioAssay data set” (2004)
